Consider twelve compounds from patent publication US20250215397A1, “TWO-DIMENSIONAL CULTURE METHOD HAVING CLEAR CHEMICAL COMPOSITION FOR CULTURING THREE-DIMENSIONAL INTESTINAL ORGANOID-DERIVED INTESTINAL STEM CELL AGGREGATE” (KOREA RESEARCH INSTITUTE OF BIOSCIENCE AND BIOTECHNOLOGY, priority 2022, published 2025).

Holding throughout (format): cell-based, human
Test [1] has as its system two-dimensional intestinal stem cell population. Put plainly: Subculture of two-dimensional intestinal stem cells, engraftment / cell number. Conditions: for subculture efficiency: added during subculture; for subculture efficiency / cell engraftment during subculture: FIG. 13; for cell engraftment during subculture: treatment during subculture; for need for long-term subculturing: factor removed from culture medium, subculture, FIG. 12. As to the method: (§1) The three-dimensional intestinal organoids were isolated from a Matrigel dome and the remaining three-dimensional intestinal organoids were removed as much as possible by pipetting. The separated organoids were placed in 1 ml of 0.25% trypsin-EDTA (TE, Invitrogen) and incubated at 37° C. a water bath for about 5 minutes. Then, pipetting was performed less than five times so that the organoids were allowed to be isolated into single cells and small clumps, and a basal medium was added so that the total volume thereof was 10 ml. The cells fed into a centrifuge were placed on culture dishes coated with feeder cells or 1% of Matrigel (Corning). Thereafter, 200 ng/ml of R-spondin 1 (R&D Systems), 100 ng/ml of EGF (R&D Systems), and 2.5 μM of Postaglandin E2 (Sigma-aldrich) were used as main components, cultured in an intestinal stem cell culture medium (2 mM of L-glutamine, 1% of Penicillin-Streptomycin, and 15 mM of HEPES buffer in Advanced DMEM F12) comprising, as an auxiliary component, one or more selected from the group consisting of 1×B27 (Invitrogen), 80 ng/ml of Noggin (R&D Systems), 10 nM of [Leu15]-Gastrin I (Sigma-aldrich), 100 ng/ml of human recombinant WNT3A (R&D Systems), 500 nM of A-83-01 (Tocris), 10 μM of SB202190 (Sigma-aldrich), 1 mM of N-acetylcysteine (Sigma-aldrich), and 10 mM of nicotinamide (Sigma-aldrich), and subcultured every 7 to 10 days. During the first 2 days of subculture, 1 μM of Jagged-1 (Anaspec) and/or 2.5 μM of Y-27632 (Tocirs) were added to the intestinal stem cell culture medium.
(§2) The two-dimensional intestinal stem cell population was plated on a culture dish coated with 1% of Matrigel and then cultured for 2 to 7 days. Thereafter, the culture medium was removed, and washing was performed 1 to 2 times with PBS (Sigma-aldrich), and TE (Invitrogen) was added thereto to detach the cells. After centrifugation, a medium was added to isolate the cells into single cells, and then the number of cells was measured using CountessIII cell counter (Thermo Scientific. Inc.).

Test [2] shares this test system. Briefly: Two-dimensional culture of intestinal stem cell population with removal of medium factors or inhibitor treatment. The conditions noted are these: for growth of the two-dimensional intestinal stem cell population: treatment with a WNT inhibitor, morphology, FIG. 8; for role of essential culture medium factor (stemness, proliferation, death): presence or absence of each factor, FIGS. 7-10. The protocol:
as §1
To measure viability of a two-dimensional intestinal stem cell population cultured in a culture dish coated with 1% of Matrigel, a kit (LIVE/DEAD Viability/Cytotoxicity Kit, Invitrogen) capable of distinguishing and staining surviving cells and dead cells was used. The surviving cells were stained with calcein-AM, and the dead cells were stained with ethidium homodimer-1. The stained cells were observed through a fluorescence microscope (Olympus).
as §2
The intestinal stem cell population was fixed with 4% of paraformaldehyde (PFA) and stained with 0.02% of crystal violet solution (Sigma-aldrich) at room temperature for 10 minutes. Thereafter, images were acquired after washing three times with sterile water. A colony size of the intestinal stem cell population was analyzed using Image J software (National Institute of Health).

The test system is the same in test [3]. Briefly: Differentiation into 2.5-dimensional intestinal epithelial cells by air-liquid interface culture, medium factor screening. The conditions noted are these: minimal medium composition; FIG. 24. As to the method:
The intestinal stem cells grown to a density of 70 to 80% were washed 1-2 times with PBS, and then treated with TE in an incubator at 37° C. for 5 to 7 minutes. The intestinal stem cells isolated into single cells were collected and then diluted using the hIO medium. The cells were gathered by centrifugation, supernatant was removed, the intestinal stem cell culture medium was added thereto and sufficiently mixed, and then the number of cells was measured using Countess III cell counter (Thermo Scientific. Inc.). 2.5-3.5×10^5 cells were placed in an insert of 12-transwell plate (Corning) coated with 1% of Matrigel, and cultured in an incubator. After the cell density reached 100%, the culture medium of an upper layer was completely removed, and the culture medium of a lower layer was replaced with a differentiation medium (2 mM of L-glutamine, 1% of Penicillin-Streptomycin, and 15 mM of a HEPES buffer in Advanced DMEM F12) comprising 200 ng/ml of R-spondin 1 (R&D Systems), 100 ng/ml of EGF (R&D Systems), 2.5 µM of Prostaglandin E2 (Sigma-aldrich), 10 μM of SB202190 (Sigma-aldrich), and 10 mM of nicotinamide (Sigma-aldrich). Thereafter, once every 2 days, a surface of the upper layer was washed with the PBS or hIO medium, and the lower layer was replaced with a new differentiation medium and cultured for 8 to 12 days.

Counter-ions that a name gives are not always drawn.

Turning to Jagged-1: Notch activator, in test [1], the subculture efficiency entry is reported as “subculture efficiency is increased” and the “cell engraftment during subculture” value was “cell engraftment increases”.
Turning to `Cc1cccc(-c2nn(C(=S)Nc3ccccc3)cc2-c2ccnc3ccccc23)n1` [A-83-01], the “need for long-term subculturing” value in test [1] is “required to more efficiently perform long-term culturing”.
As to `Cc1cc(-c2ccc(CC(=O)Nc3ccc(-c4cccnc4)cc3)cc2)ccn1` [WNT-C59], in test [2], the “growth of the two-dimensional intestinal stem cell population” value is reported as “growth is inhibited”.
Regarding `CCCCC[C@H](O)/C=C/[C@H]1[C@H](O)CC(=O)[C@@H]1C/C=C\CCCC(=O)O` [PGE2, prostaglandin E2], the “role of essential culture medium factor (stemness, proliferation, death)” value in test [2] is listed as “modulate the proliferation of the intestinal stem cell population”. The “effect on differentiation into intestinal epithelial cells” value in test [3] is given as “excellent effect on differentiation into intestinal epithelial cells”.
For `CC(=O)N[C@@H](CS)C(=O)O` [N-acetylcysteine], the “need for long-term subculturing” value in test [1] is given as “required to more efficiently perform long-term culturing”.
With `NC(=O)c1cccnc1` [nicotinamide], in test [1], the “need for long-term subculturing” value is given as “required to more efficiently perform long-term culturing”. Further, the “effect on differentiation into intestinal epithelial cells” value in test [3] is “excellent effect on differentiation into intestinal epithelial cells”.
As to `O=C(NOC[C@H](O)CO)c1ccc(F)c(F)c1Nc1ccc(I)cc1F` [PD0325901], in test [2] (EGF inhibitor treatment, morphology and live/dead assay, FIG. 9), the “cell proliferation of the two-dimensional intestinal stem cell population” value was “cell proliferation is inhibited”.
With `Oc1nc(-c2ccc(C(F)(F)F)cc2)nc2c1CSCC2` [XAV939], in test [2], the “growth of the two-dimensional intestinal stem cell population” value is recorded as “growth is inhibited”.
Consider “EGF: receptor tyrosine kinase ligand, epidermal growth factor (NSDSECPLSHDGYCLHDGVCMYIEALDKYACNCVVGYIGERCQYRDLKWWELR; Epidermal growth factor; UniProt P01133 971-1023, looked up)”, for which the “role of essential culture medium factor (stemness, proliferation, death)” value in test [2] was “prevent death of intestinal stem cell population and modulate proliferation”. Further, the “effect on differentiation into intestinal epithelial cells” value in test [3] is on record as “excellent effect on differentiation into intestinal epithelial cells”.
In the case of `CCCC(CCC)C(=O)O` [valproic acid], in test [1], the subculture efficiency entry is “subculture efficiency is increased” and the “cell engraftment during subculture” value is “cell engraftment increases”.
For the compound `C[C@@H](N)[C@H]1CC[C@H](C(=O)Nc2ccncc2)CC1` [Y-27632, R-(+)-trans-4-(1-aminoethyl)-N-(4-pyridyl) cyclohexanecarboxamidedihydrochloridemonohydrate], in test [1], the subculture efficiency entry is “subculture efficiency is increased” and the “cell engraftment during subculture” value was “cell engraftment increases”.
In the case of `Oc1ccc(-c2nc(-c3ccncc3)c(-c3ccc(F)cc3)[nH]2)cc1` [SB202190], in test [1], the “need for long-term subculturing” value is recorded as “required to more efficiently perform long-term culturing”. In addition, in test [3], the “effect on differentiation into intestinal epithelial cells” value is recorded as “excellent effect on differentiation into intestinal epithelial cells”.
